Measured values taken from patent publication US11566007B2, “Ras inhibitors” (Revolution Medicines, Inc., priority 2019, dated 2023).
Read-outs that look alike come from different tables or passages of the source.

How the values were obtained:
NCI-H358 (K-Ras G12C) = assay: CellTiter-Glo cell viability assay, NCI-H358; type: cell-based, human; details: Homo sapiens, NCI-H358, 120 h, class symbols
In short: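 Steps: compound dispensed into wells holding cells; incubation to day 5; ~30 min room-temperature equilibration; luminescence read; sample signal divided by mean DMSO signal, times 100; four-parameter logistic curve fit.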

KRAS WT = KRAS WT (Homo sapiens (Human), UniProt P01116+P62937); assay: Ras-Raf (BRAF RBD) disruption / FRET / MOA assay, KRAS WT; type: biochemical
Sequence of KRAS WT (P01116-2 other isoform, or with tags, fused parts or gaps): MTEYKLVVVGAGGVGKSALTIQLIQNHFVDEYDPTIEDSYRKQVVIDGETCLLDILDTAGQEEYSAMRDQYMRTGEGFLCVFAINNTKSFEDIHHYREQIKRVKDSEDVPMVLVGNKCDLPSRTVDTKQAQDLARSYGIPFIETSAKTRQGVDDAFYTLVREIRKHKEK
Sequence of KRAS WT (P62937 whole entry): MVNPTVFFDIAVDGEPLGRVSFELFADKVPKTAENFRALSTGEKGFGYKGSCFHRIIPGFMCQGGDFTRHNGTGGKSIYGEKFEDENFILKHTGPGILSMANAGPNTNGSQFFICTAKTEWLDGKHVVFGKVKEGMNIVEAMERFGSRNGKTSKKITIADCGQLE
In short: (§1)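 Compounds, top final concentration 30 μM in 10-point 3-fold series, incubated 3 hours at 25° C with nucleotide-loaded Ras, cyclophilin A and BRAF RBD.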

KRAS G12D = KRAS G12D (Homo sapiens (Human), UniProt P01116+P62937, G12D); assay: Ras-Raf (BRAF RBD) disruption / FRET / MOA assay, KRAS G12D; type: biochemical; details: class symbols
Sequence of KRAS G12D (P01116-2 other isoform, or with tags, fused parts or gaps G12D): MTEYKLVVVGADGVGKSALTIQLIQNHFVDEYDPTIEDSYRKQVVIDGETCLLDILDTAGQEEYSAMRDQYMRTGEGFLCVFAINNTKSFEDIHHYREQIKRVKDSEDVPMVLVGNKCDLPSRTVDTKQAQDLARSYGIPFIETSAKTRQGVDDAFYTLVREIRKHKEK
Sequence of KRAS G12D (P62937 whole entry): as the sequence (P62937 whole entry) above
In short: as §1

KRAS G12S = KRAS G12S (Homo sapiens (Human), UniProt P01116+P62937, G12S); assay: Ras-Raf (BRAF RBD) disruption / FRET / MOA assay, KRAS G12S; type: biochemical; details: class symbols
Sequence of KRAS G12S (P01116-2 other isoform, or with tags, fused parts or gaps G12S): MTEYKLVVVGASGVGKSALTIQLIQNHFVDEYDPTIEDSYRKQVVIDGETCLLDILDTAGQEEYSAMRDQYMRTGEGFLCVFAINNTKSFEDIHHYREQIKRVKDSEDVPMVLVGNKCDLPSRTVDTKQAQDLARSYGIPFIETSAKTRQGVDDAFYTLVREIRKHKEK
Sequence of KRAS G12S (P62937 whole entry): as the sequence (P62937 whole entry) above
In short: as §1

[1] = tested on: NCI-H358 cells (K-Ras G12C); assay: Potency assay: pERK in NCI-H358 cells; type: cell-based, human; details: Homo sapiens, NCI-H358; H358 KRAS G12C; read-out: pERK EC50
In short: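 Inhibition of cellular pERK after a 4 h treatment, detected by AlphaLISA or In-Cell Western. IC50 from a four-parameter concentration-response fit.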

[2] = NCI-H358, 5-day treatment, read-out: Additional H358 Cell Viability assay data (K-Ras G12C, IC50)
[3] = read-out: IC50* KRAS WT FRET data
[4] = Ras-Raf disruption/FRET/MOA assay, read-out: KRAS G12D FRET data IC50
[5] = Ras-Raf disruption/FRET/MOA assay, read-out: KRAS G12S FRET data IC50
[6] = read-out: Additional H358 Cell Viability assay data (K-Ras G12C, IC50, uM), NCI-H358, 5-day treatment

| Compound | IC50 (NCI-H358 (K-Ras G12C); [2]) | IC50 (KRAS WT; [3]) | IC50 (KRAS G12D; [4]) | IC50 (KRAS G12S; [5]) | EC50 [1] | IC50 (NCI-H358 (K-Ras G12C); [6]) | IC50 (KRAS WT; IC50* KRAS WT FRET data) | IC50 (KRAS G12D; KRAS G12D FRET data IC50, Ras-Raf disruption/FRET/MOA assay) | IC50 (KRAS G12S; KRAS G12S FRET data IC50, Ras-Raf disruption/FRET/MOA assay) |
| --- | --- | --- | --- | --- | --- | --- | --- | --- | --- |
| C=CC(=O)N(C)[C@@H]1CCN(C(=O)N(C)[C@H](C(=O)N[C@H]2Cc3nc(cs3)-c3ccc4c(c3)c(c(-c3cccnc3[C@H](C)OC)n4CC)CC(C)(C)COC(=O)[C@@H]3CCCN(N3)C2=O)C(C)C)C1 (atropisomer, axis not shown) [Example A416] | < 0.01 µM | 100 to 1000 nM | 1000 to 10000 nM | 100 to 1000 nM | < 5000 nM |  |  |  |  |
| C=CC(=O)N1CC[C@H](C(=O)N(C)[C@H](C(=O)N[C@H]2Cc3coc(n3)-c3ccc4c(c3)c(c(-c3cccnc3[C@H](C)OC)n4CC)CC(C)(C)COC(=O)[C@@H]3CCCN(N3)C2=O)C(C)C)C1 (atropisomer, axis not shown) [Example A468] | 0.01 to 0.1 µM | 1000 to 10000 nM | > 10000 nM | 1000 to 10000 nM | < 5000 nM |  |  |  |  |
| C=CC(=O)N1CCN(C(=O)N(C)[C@H](C(=O)N[C@H]2Cc3nc(cs3)-c3ccc4c(c3)c(c(-c3cccnc3[C@H](C)OC)n4CC)CC(C)(C)COC(=O)[C@@H]3CCCN(N3)C2=O)C(C)C)CC1 (atropisomer, axis not shown) [Example A491] | < 0.01 µM | 10 to 100 nM | 100 to 1000 nM | 10 to 100 nM | < 5000 nM |  |  |  |  |
| C=CC(=O)N1CC[C@H](C(=O)N(C)[C@H](C(=O)N[C@H]2Cc3nc(cs3)-c3ccc4c(c3)c(c(-c3cccnc3[C@H](C)OC)n4CC(F)(F)F)CC(C)(C)COC(=O)[C@@H]3CCCN(N3)C2=O)C(C)C)C1 (atropisomer, axis not shown) [Example A502] | < 0.01 µM | 1000 to 10000 nM | 1000 to 10000 nM | 100 to 1000 nM | < 5000 nM |  |  |  |  |
| C=CC(=O)N1CC[C@H](C(=O)N(C)[C@H](C(=O)N[C@H]2Cc3cc(CF)cc(c3)-c3ccc4c(c3)c(c(-c3cccnc3[C@H](C)OC)n4CC)CC(C)(C)COC(=O)[C@@H]3CCCN(N3)C2=O)C(C)C)C1 (atropisomer, axis not shown) [Example A503] | < 0.01 µM | 1000 to 10000 nM | 1000 to 10000 nM | 1000 to 10000 nM | < 5000 nM |  |  |  |  |
| C=CC(=O)N1CC[C@H](C(=O)N(C)[C@H](C(=O)N[C@H]2Cc3cccc(c3)-c3ccc4c(c3)c(c(-c3cc(CN(C)C)cnc3[C@H](C)OC)n4CC)CC(C)(C)COC(=O)[C@@H]3CCCN(N3)C2=O)C(C)C)C1 (atropisomer, axis not shown) [Example A522] | < 0.01 µM | 1000 to 10000 nM | > 10000 nM | 1000 to 10000 nM | < 5000 nM |  |  |  |  |
| C=CC(=O)N1CCO[C@H]2CN(C(=O)N(C)[C@H](C(=O)N[C@H]3Cc4cc(C(F)F)cc(n4)-c4ccc5c(c4)c(c(-c4cccnc4[C@H](C)OC)n5CC(F)(F)F)CC(C)(C)COC(=O)[C@@H]4CCCN(N4)C3=O)C(C)C)C[C@H]21 (atropisomer, axis not shown) [Example A540] |  |  |  |  | < 5000 nM | < 0.01 µM | 1000 to 10000 nM | > 10000 nM | 1000 to 10000 nM |
| C=CC(=O)N1CCO[C@@H]2CN(C(=O)N(C)[C@H](C(=O)N[C@H]3Cc4nc(cs4)-c4ccc5c(c4)c(c(-c4cccnc4[C@H](C)OC)n5CC)CC(C)(C)COC(=O)[C@@H]4CCCN(N4)C3=O)C(C)C)C[C@H]21 (atropisomer, axis not shown) [Example A543] | < 0.01 µM | 100 to 1000 nM | 1000 to 10000 nM | 100 to 1000 nM | < 5000 nM |  |  |  |  |
| C=CC(=O)N1CCO[C@H]2CN(C(=O)N(C)[C@H](C(=O)N[C@H]3Cc4nc(cs4)-c4ccc5c(c4)c(c(-c4cccnc4[C@H](C)OC)n5CC)CC(C)(C)COC(=O)[C@@H]4CCCN(N4)C3=O)C(C)C)C[C@@H]21 (atropisomer, axis not shown) [Example A544] | < 0.01 µM | 100 to 1000 nM | 1000 to 10000 nM | 100 to 1000 nM | < 5000 nM |  |  |  |  |
| C=CC(=O)N1CCOC2(CCN(C(=O)N(C)[C@H](C(=O)N[C@H]3Cc4nsc(n4)-c4ccc5c(c4)c(c(-c4cccnc4[C@H](C)OC)n5CC)CC(C)(C)COC(=O)[C@@H]4CCCN(N4)C3=O)C(C)C)CC2)C1 (atropisomer, axis not shown) [Example A545] | 0.01 to 0.1 µM | 100 to 1000 nM | 1000 to 10000 nM | 100 to 1000 nM | < 5000 nM |  |  |  |  |
| C=CC(=O)N1CC[C@@H]2[C@H]1CN2C(=O)N(C)[C@H](C(=O)N[C@H]1Cc2nc(cs2)-c2ccc3c(c2)c(c(-c2cccnc2[C@H](C)OC)n3CC)CC(C)(C)COC(=O)[C@@H]2CCCN(N2)C1=O)C(C)C (atropisomer, axis not shown) [Example A546] | < 0.01 µM | 1000 to 10000 nM | 1000 to 10000 nM | 1000 to 10000 nM | < 5000 nM |  |  |  |  |
| CCn1c(-c2cccnc2[C@H](C)OC)c2c3cc(ccc31)-c1cccc(c1)C[C@H](NC(=O)[C@H](C(C)C)N1CC[C@@]3(CCN(C(=O)C#C[C@H]4COCCN4C)C3)C1=O)C(=O)N1CCC[C@H](N1)C(=O)OCC(C)(C)C2 (atropisomer, axis not shown) [Example A551] |  | 1000 to 10000 nM | 1000 to 10000 nM | 1000 to 10000 nM | < 5000 nM | < 0.01 µM |  |  |  |
| CCn1c(-c2cccnc2[C@H](C)OC)c2c3cc(ccc31)-c1cccc(c1)C[C@H](NC(=O)[C@H](C(C)C)N1CO[C@@]3(CCN(C(=O)/C=C/CN(C)C)C3)C1=O)C(=O)N1CCC[C@H](N1)C(=O)OCC(C)(C)C2 (atropisomer, axis not shown) [Example A558] | 0.01 to 0.1 µM | 100 to 1000 nM | 1000 to 10000 nM | 100 to 1000 nM | < 5000 nM |  |  |  |  |
| CO[C@@H](COC1CN(C(=O)C#CC(C)(C)N(C)C)C1)C(=O)N[C@H]1Cc2coc(n2)-c2ccc3c(c2)c(c(-c2cccnc2[C@H](C)OC)n3CC(F)(F)F)CC(C)(C)COC(=O)[C@@H]2CCCN(N2)C1=O (atropisomer, axis not shown) [Example A579] | < 0.01 µM | 1000 to 10000 nM | > 10000 nM | 1000 to 10000 nM | < 5000 nM |  |  |  |  |
| C=CC(=O)N1CCO[C@H]2CCN(C(=O)N(C)[C@H](C(=O)N[C@H]3Cc4nc(cs4)-c4ccc5c(c4)c(c(-c4cccnc4[C@H](C)OC)n5CC)CC(C)(C)COC(=O)[C@@H]4CCCN(N4)C3=O)C(C)C)C[C@H]21 (atropisomer, axis not shown) [Example A580] | 0.01 to 0.1 µM | 100 to 1000 nM | 1000 to 10000 nM | 100 to 1000 nM | < 5000 nM |  |  |  |  |
| C=CC(=O)NCCN1CCN(C(=O)N(C)[C@H](C(=O)N[C@H]2Cc3nc(cs3)-c3ccc4c(c3)c(c(-c3cccnc3[C@H](C)OC)n4CC)CC(C)(C)COC(=O)[C@@H]3CCCN(N3)C2=O)C(C)C)CC1 (atropisomer, axis not shown) [Example A582] | 0.01 to 0.1 µM | 100 to 1000 nM | 1000 to 10000 nM | 100 to 1000 nM | < 5000 nM |  |  |  |  |
| CCn1c(-c2cccnc2[C@H](C)OC)c2c3cc(ccc31)-c1cccc(c1)C[C@H](NC(=O)[C@@H](CO[C@@H]1CCN(C(=O)C#CC(C)(C)N(C)C)C1)C(C)C)C(=O)N1CCC[C@H](N1)C(=O)OCC(C)(C)C2 (atropisomer, axis not shown) [Example A584] | < 0.01 µM | > 10000 nM | > 10000 nM | > 10000 nM | < 5000 nM |  |  |  |  |
| CCn1c(-c2cccnc2[C@H](C)OC)c2c3cc(ccc31)-c1cc(CF)cc(c1)C[C@H](NC(=O)[C@@H](COC1CN(C(=O)C#CC(C)(C)N(C)C)C1)C(C)C)C(=O)N1CCC[C@H](N1)C(=O)OCC(C)(C)C2 (atropisomer, axis not shown) [Example A587] | < 0.01 µM | > 10000 nM | > 10000 nM | > 10000 nM | < 5000 nM |  |  |  |  |
| CO[C@@H](C)c1ncccc1-c1c2c3cc(ccc3n1CC(F)(F)F)-c1cc(CF)cc(c1)C[C@H](NC(=O)[C@@H](COC1CN(C(=O)C#CC(C)(C)N(C)C)C1)C(C)C)C(=O)N1CCC[C@H](N1)C(=O)OCC(C)(C)C2 (atropisomer, axis not shown) [Example A589] | < 0.01 µM | 1000 to 10000 nM | > 10000 nM | > 10000 nM | < 5000 nM |  |  |  |  |
| CO[C@@H](C)c1ncccc1-c1c2c3cc(ccc3n1CC(F)(F)F)-c1nc(ns1)C[C@H](NC(=O)[C@@H](COC1CN(C(=O)C#CC(C)(C)N(C)C)C1)C(C)C)C(=O)N1CCC[C@H](N1)C(=O)OCC(C)(C)C2 (atropisomer, axis not shown) [Example A590, (2R)-2-(((1-(4-(dimethylamino)-4-methylpent-2-ynoyl)azetidin-3-yl)oxy)methyl)-N-((6^3S,4S,Z)-1^2-(2-((S)-1-methoxyethyl)pyridin-3-yl)-10,10-dimethyl-5,7-dioxo-1^1-(2,2,2-trifluoroethyl)-6^1,6^2,6^3,6^4,6^5,6^6-hexahydro-1^1H-8-oxa-2(5,3)-thiadiazola-1(5,3)-indola-6(1,3)-pyridazinacycloundecaphane-4-yl)-3-methylbutanamide] | < 0.01 µM | 1000 to 10000 nM | > 10000 nM | 1000 to 10000 nM | < 5000 nM |  |  |  |  |
